Eight compounds from ChEMBL document CHEMBL1201862, “PubChem BioAssay data set” (2004) can be followed below.

Structures can show the parent of a compound that is named as a salt.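 48-hour exposure; five concentrations; linearly interpolated endpoints. At the GI50, growth is halved.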 The source made the active and inactive calls. Rule as the data show it: active = GI50 up to about 1.1 µM and inactive = higher.

Among the test systems are HOP-62; T47D; MCF7; SN12C; SNB-75; U-251; EKVX; SK-MEL-2; LOX IMVI; SK-OV-3; CCRF-CEM; NCI/ADR-RES; A549; HT-29; MOLT-4; SW-620; SK-MEL-28; BT-549; A498; Hs-578T.
Assay in all cases: inhibition of tumour cell growth, NCI panel, 48 h

Regarding `Cc1cc(NS(=O)(=O)c2ccc(NC(=O)c3cccc4c(NNc5ccc(S(N)(=O)=O)cc5)c5ccccc5nc34)cc2)no1`, the GI50 is 42.4 µM (inactive) with HOP-62; 26 µM (inactive) with T47D; 81.3 µM (inactive) with MCF7; 49.9 µM (inactive) in the experiment on SN12C; 31.7 µM (inactive) in the experiment with SNB-75; 24 µM (inactive) in the experiment on U-251. Also, the GI50 with EKVX was 33.4 µM (inactive); in the experiment on SK-MEL-2, 24 µM (inactive); in the experiment on LOX IMVI it was 30.5 µM (inactive); in the experiment with SK-OV-3 it was 36.3 µM (inactive); in the experiment with CCRF-CEM, 27.9 µM (inactive); in the experiment with NCI/ADR-RES it was > 100 µM (inactive). In addition, the GI50 with A549 was > 100 µM (inactive); with HT-29 it was 30.9 µM (inactive); in the experiment with MOLT-4 it was 31 µM (inactive); in the experiment with SW-620, 37.2 µM (inactive); with SK-MEL-28, 35.2 µM (inactive); with BT-549 it was 61.5 µM (inactive).
As for `NCCCCN` [PUTRESCINE HYDROCHLORIDE], the GI50 in the experiment on HOP-62, with T47D, in the experiment on MCF7, with SNB-75, in the experiment with U-251 and in the experiment with EKVX was > 100 µM (inactive) throughout. Further, the GI50 in the experiment on SK-MEL-2, with LOX IMVI, in the experiment with SK-OV-3, with CCRF-CEM, in the experiment with NCI/ADR-RES and with A549 was > 100 µM (inactive) each time. Moreover, the GI50 with HT-29, with MOLT-4, with SW-620, in the experiment with SK-MEL-28, in the experiment on A498 and in the experiment on BT-549 was > 100 µM (inactive) each time.
Take `CCOc1ccc(N/C(=C(/C(Cl)=C(/Cl)N2CCCCC2)[N+](=O)[O-])n2nnc3ccccc32)cc1`: the GI50 in the experiment with HOP-62 is 21.4 µM (inactive); in the experiment with T47D it was 17.3 µM (inactive); with MCF7, 16.9 µM (inactive); with SN12C it was 19.3 µM (inactive); with SNB-75, 19.9 µM (inactive); in the experiment on U-251 it was 15.6 µM (inactive). Moreover, the GI50 in the experiment with EKVX is 19.3 µM (inactive); in the experiment with SK-MEL-2, 16.7 µM (inactive); in the experiment on SK-OV-3, 28.9 µM (inactive); in the experiment on NCI/ADR-RES it was 19.3 µM (inactive); in the experiment with A549, 21.5 µM (inactive); in the experiment with MOLT-4, 5.27 µM (inactive). Further, the GI50 in the experiment with SK-MEL-28 is 18.5 µM (inactive); in the experiment with A498, 18.3 µM (inactive); with BT-549, 17.7 µM (inactive).
On to `c1ccc2c(c1)ccc1nc3ccccn3c12`, for which the GI50 in the experiment with HOP-62 was > 100 µM (inactive); in the experiment with T47D it was > 100 µM (inactive); with MCF7, > 100 µM (inactive); with Hs-578T, 15.3 µM (inactive); with SN12C, > 100 µM (inactive); in the experiment on SNB-75, > 100 µM (inactive). Moreover, the GI50 in the experiment on U-251 was > 100 µM (inactive); in the experiment with EKVX, 68.5 µM (inactive); with SK-OV-3, 35.2 µM (inactive); with CCRF-CEM, > 100 µM (inactive); in the experiment with NCI/ADR-RES it was > 100 µM (inactive); in the experiment with A549, > 100 µM (inactive). The GI50 in the experiment on HT-29, in the experiment on MOLT-4, in the experiment with SW-620, in the experiment with SK-MEL-28 and in the experiment with BT-549 was > 100 µM (inactive) in each case.
`COC(=O)c1c(O)ccc2c1c1c(n2CCc2ccccc2)C(=O)c2ccccc2C1`: the GI50 with HOP-62 was 21.2 µM (inactive); in the experiment on MCF7, 14.2 µM (inactive); in the experiment on Hs-578T it was 29.7 µM (inactive); with SN12C, 14.7 µM (inactive); with SNB-75 it was 26.4 µM (inactive); in the experiment with U-251, 21.9 µM (inactive). The GI50 was 15.8 µM (inactive) in the experiment with SK-MEL-2; 30.1 µM (inactive) in the experiment on LOX IMVI; 22.5 µM (inactive) in the experiment with SK-OV-3; 21.4 µM (inactive) in the experiment with CCRF-CEM; 19.7 µM (inactive) in the experiment with NCI/ADR-RES; 23.5 µM (inactive) in the experiment with A549. For the same compound, the GI50 in the experiment on HT-29 is 24.4 µM (inactive); in the experiment with MOLT-4, 38.3 µM (inactive); in the experiment with SW-620, 30.1 µM (inactive); with SK-MEL-28 it was 19.5 µM (inactive); with A498, 19.2 µM (inactive); in the experiment on BT-549, 24.4 µM (inactive).
As to `NNC(=O)CC(=O)Nc1ccc(C(=O)O)cc1`, the GI50 with HOP-62, in the experiment with T47D, with MCF7, in the experiment with Hs-578T, in the experiment with SN12C and in the experiment with SNB-75 was > 100 µM (inactive) each time. Besides, the GI50 in the experiment on U-251, in the experiment on EKVX, in the experiment with SK-MEL-2, with LOX IMVI, in the experiment with SK-OV-3 and in the experiment on CCRF-CEM was > 100 µM (inactive) in each case. Also, the GI50 in the experiment on NCI/ADR-RES, in the experiment with A549, in the experiment on HT-29, in the experiment with MOLT-4, in the experiment with SW-620 and with BT-549 was > 100 µM (inactive) throughout.
For the compound `[N-]=[N+]=Nc1c(N2CCOCC2)c(Cl)nc2ccccc12`, the GI50 in the experiment on HOP-62 was 58.6 µM (inactive); with T47D, 65.6 µM (inactive); in the experiment with Hs-578T, 44.8 µM (inactive); in the experiment on SN12C, 47.8 µM (inactive); in the experiment with SNB-75, < 0.01 µM (active); in the experiment with U-251, 82.6 µM (inactive). Also, the GI50 is 9.55 µM (inactive) with EKVX; 39 µM (inactive) with SK-MEL-2; 46.6 µM (inactive) with LOX IMVI; > 100 µM (inactive) in the experiment with SK-OV-3; > 100 µM (inactive) in the experiment on CCRF-CEM; 26.4 µM (inactive) with NCI/ADR-RES. For the same compound, the GI50 in the experiment with A549 was 51.2 µM (inactive); with HT-29, 27.2 µM (inactive); in the experiment on MOLT-4, 65.2 µM (inactive); in the experiment on SW-620 it was 72.3 µM (inactive); with SK-MEL-28, 59.8 µM (inactive); in the experiment on A498, 47.9 µM (inactive). In the experiment on BT-549, the GI50 is 25.4 µM (inactive).
Consider `CC1(C)C2CCC(N)(C2)C1N` (stereo unspecified), for which the GI50 in the experiment with HOP-62, in the experiment with T47D, in the experiment on MCF7, in the experiment with SN12C, with SNB-75 and with U-251 was > 100 µM (inactive) each time. The GI50 in the experiment with EKVX, with SK-MEL-2, in the experiment on LOX IMVI, with SK-OV-3, in the experiment with CCRF-CEM and with NCI/ADR-RES was > 100 µM (inactive) in each case. Also, the GI50 with A549, with MOLT-4, in the experiment with SW-620, in the experiment on SK-MEL-28, in the experiment with A498 and in the experiment with BT-549 was > 100 µM (inactive) in each case.
